Patent US20250066341A1 (CHIESI FARMACEUTICI S.P.A., priority 2021, published 2025)

Biological target: T1, human recombinant LPA1 expressed in CHO cells (Homo sapiens, UniProt Q92633)
T1 construct: expressed in transfected cells; host or cells: CHO cells (CHO-hLPA1 cell line)
Experiment: FLIPR calcium mobilization assay, LPA1 antagonism in CHO-hLPA1 cells
Assay type: cell-based
Settings: inhibition of LPA EC80 Ca2+ response, 30 min pre-incubation, expressed as range of activity
Description: The effectiveness of compounds of the present invention as LPA1 antagonist can be determined at the human recombinant LPA1 expressed in CHO cells, using a FLIPR assay in 384 well format.
CHO-hLPA1 cell lines are cultured in a humidified incubator at 5% C02 in DMEM/F-12 (1:1) MIXTURE with 2 mM Glutamax, supplemented with 10% of Foetal Bovine Serum, 1 mM Sodium Pyruvate, 11 mM Hepes and 1× Penicillin/Streptomycin. […] Serial dilutions (1:3 or 1:4, 11 points CRC) of compounds are performed in 100% DMSO at 200× the final concentration. […] The final concentration of DMSO in the assay will be 0.5% in each well. Medium is removed by aspiration and cells are then incubated with 30 μl of a loading solution containing 5 μM of the cytoplasmic Ca2+ indicator Cal-520 AM in Assay Buffer containing 2.5 mM probenecid for 30 min at 37° C. incubator (cell loading). The loaded cell plates are transferred into the FLIPR instrument and calcium responses are monitored during the on-line addition protocols. For testing of compounds, after the cell loading, 10 μl/well of 4× antagonists' solution was added onto the cells. After 30 min pre-incubation (at 37° C.), 10 μl/well of 5× concentrated LPA EC80 was added and Ca2+ mobilization responses was followed during the on-line addition protocol. Intracellular peak fluorescence values subtracted by baseline fluorescence are exported and analysed to determine IC50 values, respectively. The calcium response is expressed as percentage of the maximal inhibition of the EC80 agonist response.
The raw data (peak height expressed as relative fluorescence units) are normalized and transformed into “percent of inhibition”. Curve fitting and pIC50 (−LogIC50) estimations are carried out using a four-parameter logistic model using XLfit Software.

T1 sequence (Q92633 whole entry): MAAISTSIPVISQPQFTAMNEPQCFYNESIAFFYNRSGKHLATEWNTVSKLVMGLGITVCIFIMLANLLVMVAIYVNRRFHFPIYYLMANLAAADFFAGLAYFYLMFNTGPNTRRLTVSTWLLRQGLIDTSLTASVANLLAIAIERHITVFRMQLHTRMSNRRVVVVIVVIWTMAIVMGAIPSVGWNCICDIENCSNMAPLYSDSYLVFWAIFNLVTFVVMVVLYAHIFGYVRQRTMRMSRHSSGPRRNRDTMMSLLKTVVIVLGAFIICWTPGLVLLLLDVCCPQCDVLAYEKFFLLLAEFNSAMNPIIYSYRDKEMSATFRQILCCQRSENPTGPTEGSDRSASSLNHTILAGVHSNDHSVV

Compound	IC50 [nM]
Cc1nc(-c2onc(C)c2NS(=O)(=O)CCc2ccccc2F)ccc1NC(=O)[C@H]1CCCC[C@@H]1C(=O)O [Compound 24, (1S,2S)-2-((6-(4-((2-(2-fluorophenyl)ethyl)sulfonamido)-3-methylisoxazol-5-yl)-2-methylpyridin-3-yl)carbamoyl)cyclohexane-1-carboxylic acid]	50 to 250
Cc1nc(-c2onc(C)c2NS(=O)(=O)CCOc2ccc(F)cc2)ccc1NC(=O)[C@H]1CCCC[C@@H]1C(=O)O [Compound 25, (1S,2S)-2-((6-(4-((2-(4-fluorophenoxy)ethyl)sulfonamido)-3-methylisoxazol-5-yl)-2-methylpyridin-3-yl)carbamoyl)cyclohexane-1-carboxylic acid]	50 to 250
Cc1nc(-c2onc(C)c2NS(=O)(=O)CCCc2ccccc2)ccc1NC(=O)[C@H]1CCCC[C@@H]1C(=O)O [Compound 26, (1S,2S)-2-((2-methyl-6-(3-methyl-4-((3-phenylpropyl)sulfonamido)isoxazol-5-yl)pyridin-3-yl)carbamoyl)cyclohexane-1-carboxylic acid]	< 50
Cc1nc(-c2onc(C)c2NS(=O)(=O)CCc2ccc(F)cc2)ccc1NC(=O)[C@H]1CCCC[C@@H]1C(=O)O [Compound 27]	50 to 250
Cc1nc(-c2onc(C)c2NS(=O)(=O)CCc2ccc(Cl)cc2)ccc1NC(=O)[C@H]1CCCC[C@@H]1C(=O)O [Compound 28, (1S,2S)-2-((6-(4-((2-(4-chlorophenyl)ethyl)sulfonamido)-3-methylisoxazol-5-yl)-2-methylpyridin-3-yl)carbamoyl)cyclohexane-1-carboxylic acid]	< 50
Cc1nc(-c2onc(C)c2CNC(=O)OCc2ccccc2)ccc1NC(=O)[C@H]1CCCC[C@@H]1C(=O)O [Compound 32, (1S,2S)-2-((6-(4-((((benzyloxy)carbonyl)amino)methyl)-3-methylisoxazol-5-yl)-2-methylpyridin-3-yl)carbamoyl)cyclohexane-1-carboxylic acid]	50 to 250
Cc1nc(-c2onc(C)c2CNC(=O)O[C@H](C)c2ccccc2)ccc1NC(=O)[C@H]1CCCC[C@@H]1C(=O)O [Compound 35, (1S,2S)-2-((2-methyl-6-(3-methyl-4-(((((R)-1-phenylethoxy)carbonyl)amino)methyl)isoxazol-5-yl)pyridin-3-yl)carbamoyl)cyclohexane-1-carboxylic acid]	250 to 600
CCOc1ccnc(NCc2c(C)noc2-c2ccc(NC(=O)[C@H]3CCCC[C@@H]3C(=O)O)c(C)n2)n1 [Compound 36, (1S,2S)-2-((6-(4-(((4-ethoxypyrimidin-2-yl)amino)methyl)-3-methylisoxazol-5-yl)-2-methylpyridin-3-yl)carbamoyl)cyclohexane-1-carboxylic acid]	50 to 250
Cc1nc(-c2onc(C)c2CNc2nccc(-c3cccs3)n2)ccc1NC(=O)[C@H]1CCCC[C@@H]1C(=O)O [Compound 37, (1S,2S)-2-((2-methyl-6-(3-methyl-4-(((4-(thiophen-2-yl)pyrimidin-2-yl)amino)methyl)isoxazol-5-yl)pyridin-3-yl)carbamoyl)cyclohexane-1-carboxylic acid]	< 50
Cc1nc(-c2onc(C)c2CNc2nccc(-c3cccnc3)n2)ccc1NC(=O)[C@H]1CCCC[C@@H]1C(=O)O [Compound 38, (1S,2S)-2-((2-methyl-6-(3-methyl-4-(((4-(pyridin-3-yl)pyrimidin-2-yl)amino)methyl)isoxazol-5-yl)pyridin-3-yl)carbamoyl)cyclohexane-1-carboxylic acid]	< 50
Cc1nc(-c2onc(C)c2CNc2nccc(-c3ccsc3)n2)ccc1NC(=O)[C@H]1CCCC[C@@H]1C(=O)O [Compound 39, (1S,2S)-2-((2-methyl-6-(3-methyl-4-(((4-(thiophen-3-yl)pyrimidin-2-yl)amino)methyl)isoxazol-5-yl)pyridin-3-yl)carbamoyl)cyclohexane-1-carboxylic acid]	< 50
Cc1nc(-c2onc(C)c2CNc2nccc(-c3cccc4ccccc34)n2)ccc1NC(=O)[C@H]1CCCC[C@@H]1C(=O)O [Compound 40, (1S,2S)-2-((2-methyl-6-(3-methyl-4-(((4-(naphthalen-1-yl)pyrimidin-2-yl)amino)methyl)isoxazol-5-yl)pyridin-3-yl)carbamoyl)cyclohexane-1-carboxylic acid]	< 50
Cc1nc(-c2onc(C)c2CNc2nccc(-c3ccco3)n2)ccc1NC(=O)[C@H]1CCCC[C@@H]1C(=O)O [Compound 41, (1S,2S)-2-((6-(4-(((4-(furan-2-yl)pyrimidin-2-yl)amino)methyl)-3-methylisoxazol-5-yl)-2-methylpyridin-3-yl)carbamoyl)cyclohexane-1-carboxylic acid]	< 50
Cc1nc(-c2nnn(C)c2CNC(=O)O[C@H](C)c2ccccc2Cl)ccc1NC(=O)[C@H]1CCCC[C@@H]1C(=O)O [Compound 42, (1S,2S)-2-((6-(5-(((((R)-1-(2-chlorophenyl)ethoxy)carbonyl)amino)methyl)-1-methyl-1H-1,2,3-triazol-4-yl)-2-methylpyridin-3-yl)carbamoyl)cyclohexane-1-carboxylic acid]	250 to 600
Cc1nc(-c2nnn(C)c2CNc2nccc(C3CCCCC3)n2)ccc1NC(=O)[C@H]1CCCC[C@@H]1C(=O)O [Compound 44, (1S,2S)-2-((6-(5-(((4-cyclohexylpyrimidin-2-yl)amino)methyl)-1-methyl-1H-1,2,3-triazol-4-yl)-2-methylpyridin-3-yl)carbamoyl)cyclohexane-1-carboxylic acid]	< 50
Cc1nc(-c2onc(C)c2COC(=O)N(C)C2CCCC2)ccc1NC(=O)[C@H]1CCCC[C@@H]1C(=O)O [Compound 45, (1S,2S)-2-((6-(4-(((cyclopentyl(methyl)carbamoyl)oxy)methyl)-3-methylisoxazol-5-yl)-2-methylpyridin-3-yl)carbamoyl)cyclohexane-1-carboxylic acid]	50 to 250
Cc1nc(-c2onc(C)c2Nc2cncc(C3CCCC3)n2)ccc1OC[C@H]1CCCC[C@@H]1C(=O)O [Compound 46, (1S,2S)-2-(((6-(4-((6-cyclopentylpyrazin-2-yl)amino)-3-methylisoxazol-5-yl)-2-methylpyridin-3-yl)oxy)methyl)cyclohexane-1-carboxylic acid]	< 50
CCOc1cncc(Nc2c(C)noc2-c2ccc(OC[C@H]3CCCC[C@@H]3C(=O)O)cn2)n1 [Compound 47, (1S,2S)-2-(((6-(4-((6-ethoxypyrazin-2-yl)amino)-3-methylisoxazol-5-yl)pyridin-3-yl)oxy)methyl)cyclohexane-1-carboxylic acid]	< 50
Cc1noc(-c2ccc(OC[C@H]3CCCC[C@@H]3C(=O)O)cn2)c1Nc1cncc(OC(C)C)n1 [Compound 48, (1S,2S)-2-(((6-(4-((6-isopropoxypyrazin-2-yl)amino)-3-methylisoxazol-5-yl)pyridin-3-yl)oxy)methyl)cyclohexane-1-carboxylic acid]	< 50
Cc1noc(-c2ccc(OC[C@H]3CCCC[C@@H]3C(=O)O)cn2)c1Nc1cncc(OCC(F)(F)F)n1 [Compound 49, (1S,2S)-2-(((6-(3-methyl-4-((6-(2,2,2-trifluoroethoxy)pyrazin-2-yl)amino)isoxazol-5-yl)pyridin-3-yl)oxy)methyl)cyclohexane-1-carboxylic acid]	< 50
Cc1noc(-c2ccc(OC[C@H]3CCCC[C@@H]3C(=O)O)cn2)c1Nc1cncc(OCC(C)C)n1 [Compound 50, (1S,2S)-2-(((6-(4-((6-isobutoxypyrazin-2-yl)amino)-3-methylisoxazol-5-yl)pyridin-3-yl)oxy)methyl)cyclohexane-1-carboxylic acid]	< 50
CCOc1cncc(Nc2c(C)noc2-c2ccc(OC[C@H]3CCCC[C@@H]3C(=O)O)c(C)n2)n1 [Compound 51, (1S,2S)-2-(((6-(4-((6-ethoxypyrazin-2-yl)amino)-3-methylisoxazol-5-yl)-2-methylpyridin-3-yl)oxy)methyl)cyclohexane-1-carboxylic acid]	< 50
Cc1nc(-c2onc(C)c2Nc2cncc(OC(C)C)n2)ccc1OC[C@H]1CCCC[C@@H]1C(=O)O [Compound 52, (1S,2S)-2-(((6-(4-((6-isopropoxypyrazin-2-yl)amino)-3-methylisoxazol-5-yl)-2-methylpyridin-3-yl)oxy)methyl)cyclohexane-1-carboxylic acid]	< 50
COc1cncc(Nc2c(C)noc2-c2ccc(OC[C@H]3CCCC[C@@H]3C(=O)O)c(C)n2)n1 [Compound 53, (1S,2S)-2-(((6-(4-((6-methoxypyrazin-2-yl)amino)-3-methylisoxazol-5-yl)-2-methylpyridin-3-yl)oxy)methyl)cyclohexane-1-carboxylic acid]	50 to 250
CCCc1cncc(Nc2c(C)noc2-c2ccc(OC[C@H]3CCCC[C@@H]3C(=O)O)c(C)n2)n1 [Compound 54, (1S,2S)-2-(((2-methyl-6-(3-methyl-4-((6-propylpyrazin-2-yl)amino)isoxazol-5-yl)pyridin-3-yl)oxy)methyl)cyclohexane-1-carboxylic acid]	< 50
